# Assay results published in patent US5747051A, “Skin care compositions containing an amide of a hydroxy fatty acid and a retinoid” (Elizabeth Arden Co., Division of Conopco, Inc., priority 1996, dated 1998).
# How the values were obtained:
# [1] = tested on: transglutaminase 1 (TG1) in human keratinocytes; assay: Transglutaminase 1 (TG1) ELISA assay of keratinocyte differentiation, normalised to DNA, Example 2; format: cell-based; details: for inhibiting keratinocyte TG1 level when used alone, in words: 2.5×10^-7 M retinol or 10^-6 M lactamide-DEA alone, compared with retinoic acid 2.5×10^-7 M
# Experimental: Human keratinocytes, isolated from neonatal foreskin by trypsin treatment were grown in Dulbecco Modification Eagle (DME) Hams F12 (1:1) medium/10% fetal calf serum in the presence of irradiated 3T3 mouse fibroblasts for establishing dividing keratinocyte colonies. Cells were grown under the above condition until their second passage and kept frozen for future use. Frozen second passage keratinocytes were thawed and plated into the above medium and grown for five days before they were switched to a serum-free MCDB 153-based medium keratinocyte growth medium (KGM) from Clonetics Corporation, San Diego, Calif. containing 0.15 mM Ca, or keratinocyte serum-free media (KSFM) from GIBCO containing 0.09 mM Ca). On day 7, when the cells were 80-90% confluent, they were trypsinized and plated in the serum-free medium for the various experiments.
# (§1) During the process of terminal differentiation in the epidermis, a 15 nm thick layer of protein, known as the cornified envelope (CE) is formed on the inner surface of the cell periphery. The CE is composed of numerous distinct proteins which have been cross-linked together by the formation of N ^ε -(γ-glutamyl) lysine isodipeptide bonds catalyzed by the action of at least two different transglutaminases (TGases) expressed in the epidermis. TGase I is expressed in abundance in the differentiated layers of the epidermis, especially the granular layer, but is absent in the undifferentiated basal epidermis. Thus TGase I is a useful marker of epidermal keratinocyte differentiation with high TGase I levels indicating a more differentiated state. An ELISA based TGase I assay, using a TGase I antibody, was used to assess the state of differentiation of the cultured keratinocytes in the examples that follow.
# Keratinocytes (cultured as described above) were plated in 96 well plates at a density of 3,000 cells per well in 200 μl of cell culture media. After incubation for four days, the media was changed to media containing test compounds (six replicates per test). The cells were cultured for a further 72 hours after which time the media was aspirated and the plates stored at -70° C. After the plates were removed from the freezer, the cells were further freezed fractured by freezing and thawing and then washed 3× with PBS. The cells were incubated for one hour at room temperature (R/T) with TBS/5% BSA buffer. Cells were then incubated with 100 μl of monoclonal anti-human transglutaminase (IgG) mouse antibody (primary antibody) obtained from Biomedical Technologies Inc. diluted 1:2000 in TBS/1% BSA buffer for two hours at 37° C., and then rinsed six times with wash buffer (TBS/1% BSA/0.05% Tween-20). Cells were next incubated with 100 μl of Fab fragment, peroxidase conjugated anti-mouse IgG antibody (secondary antibody) from Amersham diluted 1:4,000 in wash buffer for two hours at 37° C. and then rinsed three times with wash buffer and three times with PBS. Cells were incubated with substrate solution (4 mg o-phenylene diamine and 3.3 μl 30% H2 O2 in 1O ml 0.1M citrate buffer, pH 5.0) for five minutes at R/T and in darkness (under aluminum foil). The reaction was stopped by the addition of 50 μl 4N H2SO4. The absorbance of samples was read at 492 nm in the plate reader. Out of the six replicates, four were treated with both antibodies, two were treated only with the secondary antibody (i.e., to determine the background binding of the enzyme conjugated antibody). Transglutaminase I levels were determined by subtracted background from the readings from each treatment and determining the mean s.d. for the replicates exposed to both antibodies.
# The level of TGase-1 detected after treatment of the cells could be influenced by cell number, i.e., the greater the number of cells the greater the level of TGase-1 detected. The level of TGase-1 was normalized to DNA content of the cells in the same well thus eliminating variation due to differences in cell number. […]
# [2] = tested on: Transglutaminase (TGase I) in human keratinocytes; assay: Transglutaminase (TGase I ELISA) assay of keratinocyte differentiation, normalized to DNA, Example 1; format: cell-based; details: 2.5×10^-7 M, 2.5×10^-8 M and 2.5×10^-9 M
# Experimental: Human keratinocytes, isolated from neonatal foreskin by trypsin treatment were grown in Dulbecco Modification Eagle (DME) Hams F12 (1:1) medium/10% fetal calf serum in the presence of irradiated 3T3 mouse fibroblasts for establishing dividing keratinocyte colonies. Cells were grown under the above condition until their second passage and kept frozen for future use. […] On day 7, when the cells were 80-90% confluent, they were trypsinized and plated in the serum-free medium for the various experiments.
# as §1, with “Thus TGase I is a useful marker of epidermal keratinocyte differentiation with high TGase I levels indicating a more differentiated state. An ELISA based TGase I assay, using a TGase I antibody, was used to assess the state of differentiation of the cultured keratinocytes in the examples that follow.” left out
# Keratinocytes (cultured as described above) were plated in 96 well plates at a density of 3,000 cells per well in 200 μl media. […] The absorbance of samples was read at 492 nm in the plate reader. […] TGase levels were determined by subtracting background from the readings from each treatment and determining mean ±s.d. for the replicates exposed to both Ab.
# The level of TGase-1 was normalized to DNA content of the cells in the same well thus eliminating variation due to differences in cell number. DNA quantitation is a particularly useful indicator of cell number, including keratinocyte cell number, because each cell has to all intents and purposes an identical genome and therefore an identical quantity of DNA The total DNA content of a well of cells therefore is directly proportional to the cell number in that well. Quantitation of DNA was used to normalize the TGase data to cell number. […]
# [3] = Homo sapiens, Keratinocyte, Table 2A, 2.5 × 10^-8 M, 72 hour treatment, n = 3, read-out: TGase/DNA (% control)
# [4] = Homo sapiens, Keratinocyte, Table 2B, 2.5 × 10^-7 M, 72 hour treatment, n = 3, read-out: TGase/DNA (% control)
# [5] = Table 2A, 2.5 × 10^-8 M, 72 hour treatment, n = 3, control 18.42 ± 3.88
# [6] = Table 2B, 2.5 × 10^-7 M, 72 hour treatment, n = 3, control 64.11 ± 2.91
structure (smiles),measurement,setting,value
"CCCCCCCCCCC(O)CC(N)=O (stereo not drawn) [C13-β-hydroxy-acid amide, C13 β-hydroxy acid amide]","inhibitory effect on keratinocyte TG1 level when used alone, in words","[1]; 10^-8 M, amide alone",no inhibitory effect
same,activity at 0.01 µM,"[1]; Homo sapiens, Keratinocyte, Table 2A, 10^-8 M, 72 hour treatment, n = 3, read-out: TGase/DNA (% control)",101%
same,mean TGase/DNA × 10^5 ± s.d,"[1]; Table 2A, 10^-8 M, 72 hour treatment, n = 3, control 18.42 ± 3.88",18.53 ± 4.58
"CC(O)C(=O)NCCO (centres unmarked) [lactamide-MEA, lactamide monoethanolamide]","inhibiting keratinocyte TG1 level when used alone, in words",[1],less effective
same,activity at 1 µM,"[1]; Homo sapiens, Keratinocyte, Table 2B, 10^-6 M, 72 hour treatment, n = 3, read-out: TGase/DNA (% control)",86%
same,mean TGase/DNA × 10^5 ± s.d,"[1]; Table 2B, 10^-6 M, 72 hour treatment, n = 3, control 64.11 ± 2.91",55.22 ± 2.43
"CC1=C(/C=C/C(C)=C/C=C/C(C)=C/CO)C(C)(C)CCC1 [Retinol, retinol]","decrease in transglutaminase level, dose dependence",[2],dose dependent
same,"inhibiting keratinocyte TG1 level when used alone, in words",[1],less effective
same,"effect on keratinocyte differentiation, in words (summary of Examples 1 and 2)",[1],completely ineffective at decreasing keratinocyte differentiation
same,activity at 0.025 µM,[1]; [3],79%
same,activity at 0.25 µM,[1]; [4],91%
same,mean TGase/DNA × 10^5 ± s.d,[1]; [5],14.62 ± 2.99
same,mean TGase/DNA × 10^5 ± s.d,[1]; [6],58.47 ± 6.25
"CC1=C(/C=C/C(C)=C/C=C/C(C)=C/C(=O)O)C(C)(C)CCC1 [Retinoic acid, retinoic acid]","decrease in transglutaminase level, dose dependence",[2],dose dependent
same,"effect on keratinocyte differentiation (transglutaminase level), in words",[2]; vs ethanol control and corresponding retinol treatments,"decreased keratinocyte differentiation over both the ethanol control and did so to a significantly greater extent than each of the corresponding 2.5×10^-7 M, 2.5×10^-8 M and 2.5×10^-9 M retinol treatments"
same,"effect on keratinocyte differentiation, in words (summary of Examples 1 and 2)",[1],"in a dose dependent manner, decreased keratinocyte differentiation"
same,activity at 0.025 µM,[1]; [3],6%
same,activity at 0.25 µM,[1]; [4],73%
same,mean TGase/DNA × 10^5 ± s.d,[1]; [5],1.05 ± 1.05
same,mean TGase/DNA × 10^5 ± s.d,[1]; [6],46.71 ± 7.83
